Data reported in ChEMBL document CHEMBL1134975, “3-Hydroxy-4-methyl-5-pentyl-2-iminopyrrolidine: a potent and highly selective inducible nitric oxide synthase inhibitor” (Bioorg Med Chem Lett, 2002).

Tests used:
[1] = target: T1, Nitric oxide synthase 3 (Homo sapiens, UniProt P29474); experiment: Inhibitory activity against Endothelial nitric oxide synthase
T1 sequence (P29474 whole entry): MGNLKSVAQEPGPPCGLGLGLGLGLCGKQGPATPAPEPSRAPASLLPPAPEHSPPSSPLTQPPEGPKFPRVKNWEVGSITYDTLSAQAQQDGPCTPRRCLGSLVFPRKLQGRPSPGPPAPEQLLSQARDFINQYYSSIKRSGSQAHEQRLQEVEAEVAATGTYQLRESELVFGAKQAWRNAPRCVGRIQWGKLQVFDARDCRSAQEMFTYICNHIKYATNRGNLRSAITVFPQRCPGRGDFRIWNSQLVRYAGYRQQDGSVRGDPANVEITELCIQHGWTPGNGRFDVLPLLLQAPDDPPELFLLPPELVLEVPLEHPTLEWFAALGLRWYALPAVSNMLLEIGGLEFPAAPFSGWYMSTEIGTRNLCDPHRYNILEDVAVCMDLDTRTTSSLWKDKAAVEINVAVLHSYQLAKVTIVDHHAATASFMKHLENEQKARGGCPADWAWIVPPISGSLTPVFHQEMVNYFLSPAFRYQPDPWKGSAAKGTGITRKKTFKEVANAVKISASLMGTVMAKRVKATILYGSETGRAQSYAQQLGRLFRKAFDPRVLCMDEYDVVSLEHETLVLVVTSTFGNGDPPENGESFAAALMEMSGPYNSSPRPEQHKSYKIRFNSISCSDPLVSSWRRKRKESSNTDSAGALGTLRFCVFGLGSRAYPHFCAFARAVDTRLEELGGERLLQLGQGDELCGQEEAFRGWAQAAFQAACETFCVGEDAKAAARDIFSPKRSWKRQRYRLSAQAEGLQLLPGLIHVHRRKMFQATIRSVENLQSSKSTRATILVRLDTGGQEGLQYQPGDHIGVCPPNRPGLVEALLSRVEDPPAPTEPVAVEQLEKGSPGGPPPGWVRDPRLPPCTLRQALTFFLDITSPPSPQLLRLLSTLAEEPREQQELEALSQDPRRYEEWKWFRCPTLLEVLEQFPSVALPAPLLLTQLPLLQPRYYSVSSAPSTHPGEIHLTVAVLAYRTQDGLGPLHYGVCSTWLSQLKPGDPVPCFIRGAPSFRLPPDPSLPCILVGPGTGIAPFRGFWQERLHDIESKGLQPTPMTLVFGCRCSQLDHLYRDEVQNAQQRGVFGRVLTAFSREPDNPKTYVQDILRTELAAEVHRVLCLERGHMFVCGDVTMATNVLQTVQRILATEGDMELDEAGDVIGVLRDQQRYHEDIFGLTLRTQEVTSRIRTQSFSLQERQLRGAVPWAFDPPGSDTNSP

[2] = target: Nitric oxide synthase, inducible (Homo sapiens, UniProt P35228); experiment: Inhibitory concentration against Inducible nitric oxide synthase (iNOS)
[3] = target: Nitric oxide synthase 1 (Homo sapiens, UniProt P29475); experiment: Inhibitory concentration against Neuronal nitric oxide synthase
[4] = target: T1, Nitric oxide synthase 3; experiment: Inhibitory concentration against Endothelial nitric oxide synthase

Sequence of Nitric oxide synthase, inducible (P35228 whole entry): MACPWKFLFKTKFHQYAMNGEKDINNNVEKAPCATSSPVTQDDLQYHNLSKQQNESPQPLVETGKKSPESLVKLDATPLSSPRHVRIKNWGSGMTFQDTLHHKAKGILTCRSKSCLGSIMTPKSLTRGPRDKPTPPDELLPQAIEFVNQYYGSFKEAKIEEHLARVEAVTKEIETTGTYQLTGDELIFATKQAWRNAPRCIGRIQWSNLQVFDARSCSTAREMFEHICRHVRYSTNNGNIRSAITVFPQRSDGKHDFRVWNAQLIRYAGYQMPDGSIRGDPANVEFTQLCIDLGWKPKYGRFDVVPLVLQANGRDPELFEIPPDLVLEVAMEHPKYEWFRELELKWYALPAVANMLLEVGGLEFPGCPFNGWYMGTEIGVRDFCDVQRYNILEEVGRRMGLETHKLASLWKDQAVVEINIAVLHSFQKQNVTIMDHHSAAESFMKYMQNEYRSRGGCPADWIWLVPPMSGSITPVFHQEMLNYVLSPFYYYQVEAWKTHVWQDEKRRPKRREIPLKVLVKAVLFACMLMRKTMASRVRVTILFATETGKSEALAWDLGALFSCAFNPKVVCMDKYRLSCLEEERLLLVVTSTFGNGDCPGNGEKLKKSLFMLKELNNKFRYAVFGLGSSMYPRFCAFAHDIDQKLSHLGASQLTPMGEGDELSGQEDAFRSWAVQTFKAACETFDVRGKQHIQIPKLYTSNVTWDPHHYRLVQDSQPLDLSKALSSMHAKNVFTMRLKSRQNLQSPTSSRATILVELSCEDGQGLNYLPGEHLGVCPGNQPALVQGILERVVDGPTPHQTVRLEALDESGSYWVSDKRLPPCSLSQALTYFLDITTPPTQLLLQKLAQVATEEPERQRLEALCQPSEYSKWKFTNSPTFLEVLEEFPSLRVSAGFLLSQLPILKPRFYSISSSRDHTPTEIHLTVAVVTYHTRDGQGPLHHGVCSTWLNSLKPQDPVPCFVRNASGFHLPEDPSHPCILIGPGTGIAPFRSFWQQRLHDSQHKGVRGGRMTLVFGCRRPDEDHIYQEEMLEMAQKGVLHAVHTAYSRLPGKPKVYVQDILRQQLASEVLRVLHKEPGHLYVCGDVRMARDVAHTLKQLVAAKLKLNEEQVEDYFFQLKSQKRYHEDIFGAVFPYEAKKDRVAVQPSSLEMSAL
Sequence of Nitric oxide synthase 1 (P29475 whole entry): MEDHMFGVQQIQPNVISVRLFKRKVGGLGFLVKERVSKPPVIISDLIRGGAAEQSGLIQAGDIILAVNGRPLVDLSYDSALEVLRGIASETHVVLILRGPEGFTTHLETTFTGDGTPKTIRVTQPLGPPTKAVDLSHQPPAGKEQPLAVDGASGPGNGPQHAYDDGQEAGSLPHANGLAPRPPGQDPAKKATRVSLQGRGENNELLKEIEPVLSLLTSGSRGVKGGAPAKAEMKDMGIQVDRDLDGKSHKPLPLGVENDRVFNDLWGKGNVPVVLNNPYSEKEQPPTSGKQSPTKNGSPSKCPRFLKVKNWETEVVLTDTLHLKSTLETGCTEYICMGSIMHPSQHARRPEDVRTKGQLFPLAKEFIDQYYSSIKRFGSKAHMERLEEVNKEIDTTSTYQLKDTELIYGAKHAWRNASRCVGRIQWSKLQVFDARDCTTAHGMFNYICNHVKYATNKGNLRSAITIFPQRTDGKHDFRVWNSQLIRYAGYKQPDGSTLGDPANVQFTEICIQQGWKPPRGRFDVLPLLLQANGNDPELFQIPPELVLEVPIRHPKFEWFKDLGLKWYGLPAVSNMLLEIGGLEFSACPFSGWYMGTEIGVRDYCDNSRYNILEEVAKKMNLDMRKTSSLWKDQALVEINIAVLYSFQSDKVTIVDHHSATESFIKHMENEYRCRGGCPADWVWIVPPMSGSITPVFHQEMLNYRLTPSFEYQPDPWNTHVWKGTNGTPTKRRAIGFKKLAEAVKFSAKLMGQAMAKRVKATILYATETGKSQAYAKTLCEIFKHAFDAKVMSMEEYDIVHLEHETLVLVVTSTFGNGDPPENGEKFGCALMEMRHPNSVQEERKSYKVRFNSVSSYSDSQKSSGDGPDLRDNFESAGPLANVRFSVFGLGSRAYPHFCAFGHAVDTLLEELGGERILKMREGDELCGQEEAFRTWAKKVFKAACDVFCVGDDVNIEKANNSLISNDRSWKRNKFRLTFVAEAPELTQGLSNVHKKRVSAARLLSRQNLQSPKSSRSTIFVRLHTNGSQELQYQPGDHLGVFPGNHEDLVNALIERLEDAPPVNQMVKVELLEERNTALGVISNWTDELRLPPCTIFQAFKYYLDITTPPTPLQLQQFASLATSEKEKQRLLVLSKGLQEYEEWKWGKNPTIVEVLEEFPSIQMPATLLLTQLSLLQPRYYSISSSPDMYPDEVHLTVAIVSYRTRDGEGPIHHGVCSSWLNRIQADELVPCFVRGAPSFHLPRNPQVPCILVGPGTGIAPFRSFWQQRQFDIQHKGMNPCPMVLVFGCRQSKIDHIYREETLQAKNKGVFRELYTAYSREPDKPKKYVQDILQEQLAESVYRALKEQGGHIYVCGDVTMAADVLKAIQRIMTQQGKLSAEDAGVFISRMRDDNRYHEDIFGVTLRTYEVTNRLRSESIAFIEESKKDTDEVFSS

SMILES	IC50 [1]	IC50 [2]	IC50 [3]	IC50 [4]
CCCCC[C@H]1NC(=N)C[C@H]1C (single isomer, unassigned)	578 µM	4.5 µM	21 µM	
CCCCC[C@@H]1N=C(N)[C@H](O)[C@@H]1C		2.8 µM	49 µM	2930 µM
CCCCC[C@@H]1N=C(N)[C@@H](O)[C@@H]1C		1.8 µM	20 µM	930 µM
CCCCC[C@H]1N=C(N)[C@H](O)[C@H]1C		1.8 µM	8.9 µM	695 µM
CCCCC[C@H]1NC(=N)[C@@H](O)[C@H]1C	1980 µM	0.78 µM	27 µM	
CCCCC[C@H]1NC(=N)C[C@H]1C	226 µM	0.25 µM	3.2 µM	
